PMC11077815, “Synthesis and antitumor activity of dolutegravir derivatives bearing 1,2,3-triazole moieties” (BMC Chemistry, 2024)

How the values were obtained:
H460 = assay: CCK8 cell viability assay, H460; type: cell-based, Human; settings: for Cell viability (100%): H460, 20 µM, 48 h, CCK8, control = 100%; for IC50: H460, 48 h, CCK8, mean ± SE
Protocol: (§1) At first, CCK8 assay was carried out to evaluate the anti-proliferative activity of dolutegravir-1,2,3-triazole derivatives against different cancer cell lines. The results of cell viability of three lung cancer cell lines A549, PC-9 and H460 in the presence of compounds 9 and 10 are summarized in Table 2. Cells were treated with different compounds at the concentration of 20 µM for 48 h. […] Human lung cancer cell lines A549, PC-9 and H460 were all obtained from ATCC. Cells were cultured in DMEM or RPMI 1640 medium containing 10% FBS and 1% penicillin/streptomycin at 37 °C with a 5% CO2-humidified atmosphere. CCK8 assay was used to measure cell viability. Cells with a density of 1 × 10^4 cells/well were seeded on the 96-well plates. After adhesion, cells were treated with different diluted compounds or vehicle control DMSO and continue cultured for 48 h. Then, CCK8 reagent was added for one hour incubation at 37 °C with 5% of CO2. Absorbance was measured using a microplate spectrophotometer (Thermo) at 450 nm. The ratio of cell viability of control was taken as 100%. […] Then IC50 of the compounds were investigated using the prism statistical software.

A549 = assay: CCK8 cell viability assay, A549; type: cell-based, Human; settings: for Cell viability (100%): A549, 20 µM, 48 h, CCK8, control = 100%; for IC50: A549, 48 h, CCK8, mean ± SE
Protocol: as §1

[1] = tested on: HRM (Human Renal Mesangial) cell line; assay: CCK8 cell viability assay, HRM normal cells (toxicity control); type: cell-based; settings: HRM normal human cells, 48 h, CCK8, mean ± SE
Protocol: Based on these preliminary results, compounds 9c, 9e, 9f, 9i, 9k, 9 L, 9p, 9q, 9t, 9u, 9v, 9w, 10c, 10e which were effective to most of the cell lines were chosen for the measurement of the half-maximal inhibitory concentration (IC50). […] HRM (Human Renal Mesangial) cell line was used as a control to study the toxicity of these compounds against normal human cells.
CCK8 assay was used to measure cell viability. Cells with a density of 1 × 10^4 cells/well were seeded on the 96-well plates. After adhesion, cells were treated with different diluted compounds or vehicle control DMSO and continue cultured for 48 h. Then, CCK8 reagent was added for one hour incubation at 37 °C with 5% of CO2. Absorbance was measured using a microplate spectrophotometer (Thermo) at 450 nm. The ratio of cell viability of control was taken as 100%. […] Then IC50 of the compounds were investigated using the prism statistical software.

PC-9 = assay: CCK8 cell viability assay, PC-9; type: cell-based, Human; settings: for Cell viability (100%): PC9, 20 µM, 48 h, CCK8, control = 100%; for IC50: PC9, 48 h, CCK8, mean ± SE
Protocol: as §1

Row | Structure (SMILES) | Cell viability (100%) (H460) [%] | IC50 (H460) [µM] | Cell viability (100%) (A549) [%] | IC50 (A549) [µM] | IC50 [1] [µM] | Cell viability (100%) (PC-9) [%] | IC50 (PC-9) [µM]
1 | COc1cccc(-n2cc(-c3cccc(NC(=O)c4cn5c(c(OC)c4=O)C(=O)N4[C@H](C)CCO[C@H]4C5)c3)nn2)c1 [Compound 9 L] | 20.32 | 25.5 ± 0.43 | 73.36 | 44.3 ± 1.21 | 43.3 ± 3.27 | 47.77 | 9.2 ± 0.65
2 | COc1c2n(cc(C(=O)Nc3cccc(-c4cn(-c5ccc(F)cc5)nn4)c3)c1=O)C[C@@H]1OCC[C@@H](C)N1C2=O [Compound 9 g] | 97.85 |  | 91.65 |  |  | 88.64 | 
3 | CCOc1ccc(-n2cc(-c3cccc(NC(=O)c4cn5c(c(OC)c4=O)C(=O)N4[C@H](C)CCO[C@H]4C5)c3)nn2)cc1 [Compound 9 h] | 52.87 |  | 77.55 |  |  | 71.96 | 
4 | CCc1ccc(-n2cc(-c3cccc(NC(=O)c4cn5c(c(OC)c4=O)C(=O)N4[C@H](C)CCO[C@H]4C5)c3)nn2)cc1 [Compound 9 m] | 62.63 |  | 65.08 |  |  | 63.65 | 
5 | COc1c2n(cc(C(=O)Nc3cccc(-c4cn(-c5ccccc5F)nn4)c3)c1=O)C[C@@H]1OCC[C@@H](C)N1C2=O [Compound 9a] | 47.20 |  | 95.90 |  |  | 52.03 | 
6 | COc1cc([N+](=O)[O-])ccc1-n1cc(-c2cccc(NC(=O)c3cn4c(c(OC)c3=O)C(=O)N3[C@H](C)CCO[C@H]3C4)c2)nn1 [Compound 9b] | 98.64 |  | 92.60 |  |  | 104.86 | 
7 | COc1c2n(cc(C(=O)Nc3cccc(-c4cn(-c5ccccc5C(F)(F)F)nn4)c3)c1=O)C[C@@H]1OCC[C@@H](C)N1C2=O [Compound 9c] | 32.97 | 11.4 ± 0.59 | 9.48 | 9.06 ± 0.88 | > 50 | 13.91 | 4.03 ± 0.59
8 | COc1c2n(cc(C(=O)Nc3cccc(-c4cn(-c5ccc(C(F)(F)F)cc5)nn4)c3)c1=O)C[C@@H]1OCC[C@@H](C)N1C2=O [Compound 9d] | 69.71 |  | 82.37 |  |  | 105.15 | 
9 | COc1c2n(cc(C(=O)Nc3cccc(-c4cn(-c5cccc(C)c5)nn4)c3)c1=O)C[C@@H]1OCC[C@@H](C)N1C2=O [Compound 9f] | 39.20 | 19.6 ± 0.32 | 33.47 | 27.8 ± 0.56 | > 50 | 8.80 | 4.67 ± 0.26
10 | COc1c2n(cc(C(=O)Nc3cccc(-c4cn(-c5ccccc5OC(F)(F)F)nn4)c3)c1=O)C[C@@H]1OCC[C@@H](C)N1C2=O [Compound 9i] | 8.52 | 8.24 ± 2.06 | 17.41 | 11.1 ± 1.07 | > 50 | 18.95 | 4.53 ± 0.31
11 | COc1ccc(-n2cc(-c3cccc(NC(=O)c4cn5c(c(OC)c4=O)C(=O)N4[C@H](C)CCO[C@H]4C5)c3)nn2)cc1OC [Compound 9j] | 92.89 |  | 87.42 |  |  | 85.93 | 
12 | CCc1ccccc1-n1cc(-c2cccc(NC(=O)c3cn4c(c(OC)c3=O)C(=O)N3[C@H](C)CCO[C@H]3C4)c2)nn1 [Compound 9k] | 18.72 | 12.9 ± 0.8 | 83.48 | 20.7 ± 0.23 | > 50 | 23.40 | 9.87 ± 0.19
13 | COc1c2n(cc(C(=O)Nc3cccc(-c4cn(-c5ccc(C(C)(C)C)cc5)nn4)c3)c1=O)C[C@@H]1OCC[C@@H](C)N1C2=O [Compound 9n] | 24.58 |  | 67.60 |  |  | 59.44 | 
14 | COc1c2n(cc(C(=O)Nc3cccc(-c4cn(-c5ccccc5)nn4)c3)c1=O)C[C@@H]1OCC[C@@H](C)N1C2=O [Compound 9o] | 87.72 |  | 78.59 |  |  | 94.56 | 
15 | COc1c2n(cc(C(=O)Nc3cccc(-c4cn(-c5cc(C(F)(F)F)ccc5C(F)(F)F)nn4)c3)c1=O)C[C@@H]1OCC[C@@H](C)N1C2=O [Compound 9q] | 17.63 | 16.5 ± 0.57 | 54.85 | 13.6 ± 1.79 | > 50 | 18.17 | 6.78 ± 0.31
16 | COc1c2n(cc(C(=O)Nc3cccc(-c4cn(-c5cc(C(F)(F)F)cc(C(F)(F)F)c5)nn4)c3)c1=O)C[C@@H]1OCC[C@@H](C)N1C2=O [Compound 9r] | 117.07 |  | 90.73 |  |  | 98.55 | 
17 | COc1c2n(cc(C(=O)Nc3cccc(-c4cn(-c5ccccc5C)nn4)c3)c1=O)C[C@@H]1OCC[C@@H](C)N1C2=O [Compound 9s] | 48.37 |  | 82.07 |  |  | 65.73 | 
18 | COc1ccccc1-n1cc(-c2cccc(NC(=O)c3cn4c(c(OC)c3=O)C(=O)N3[C@H](C)CCO[C@H]3C4)c2)nn1 [Compound 9t] | 3.27 | 14.2 ± 0.16 | 7.32 | 17.3 ± 0.73 | > 50 | 4.56 | 6.75 ± 1.43
19 | COc1c2n(cc(C(=O)Nc3cccc(-c4cn(-c5ccccc5Br)nn4)c3)c1=O)C[C@@H]1OCC[C@@H](C)N1C2=O [Compound 9u] | 31.00 | 37.3 ± 2.25 | 64.09 | > 50 | > 50 | 43.88 | 7.77 ± 0.37
20 | COc1c2n(cc(C(=O)Nc3cccc(-c4cn(-c5ccccc5Cl)nn4)c3)c1=O)C[C@@H]1OCC[C@@H](C)N1C2=O [Compound 9v] | 38.13 | 16.2 ± 1.29 | 54.06 | > 50 | > 50 | 47.42 | 11.6 ± 0.48
21 | COc1ccc(-n2cc(-c3cccc(NC(=O)c4cn5c(c(OC)c4=O)C(=O)N4C(C)CCOC4C5)c3)nn2)cc1 (stereo not drawn) [Compound 9x] | 108.05 |  | 69.21 |  |  | 78.11 | 
22 | COc1c2n(cc(C(=O)Nc3cccc(-c4cn(-c5ccc(C)cc5)nn4)c3)c1=O)C[C@@H]1OCC[C@@H](C)N1C2=O [Compound 9y] | 94.78 |  | 85.43 |  |  | 79.67 | 
23 | COc1c2n(cc(C(=O)Nc3cccc(-c4cn(-c5c(C)cc(C)cc5C)nn4)c3)c1=O)C[C@@H]1OCC[C@@H](C)N1C2=O [Compound 9z] | 55.57 |  | 91.32 |  |  | 73.07 | 
24 | COc1c2n(cc(C(=O)Nc3cccc(-c4cn(Cc5ccccc5C)nn4)c3)c1=O)CC1OCCC(C)N1C2=O (stereo not drawn) [Compound 10 g] | 35.98 |  | 71.58 |  |  | 54.61 | 
25 | COc1c2n(cc(C(=O)Nc3cccc(-c4cn(Cc5ccccc5C(F)(F)F)nn4)c3)c1=O)CC1OCCC(C)N1C2=O (stereo not drawn) [Compound 10 h] | 28.10 |  | 77.72 |  |  | 66.77 | 
26 | COc1c2n(cc(C(=O)Nc3cccc(-c4cn(Cc5cc(Br)cc(Br)c5)nn4)c3)c1=O)C[C@@H]1OCC[C@@H](C)N1C2=O [Compound 10a] | 82.32 |  | 87.40 |  |  | 103.57 | 
27 | COc1c2n(cc(C(=O)Nc3cccc(-c4cn(Cc5ccccc5)nn4)c3)c1=O)C[C@@H]1OCC[C@@H](C)N1C2=O [Compound 10b] | 55.00 |  | 87.18 |  |  | 96.85 | 
28 | COc1cccc(Cn2cc(-c3cccc(NC(=O)c4cn5c(c(OC)c4=O)C(=O)N4[C@H](C)CCO[C@H]4C5)c3)nn2)c1 [Compound 10d] | 77.21 |  | 89.00 |  |  | 83.17 | 
29 | COc1c2n(cc(C(=O)Nc3cccc(-c4cn(Cc5ccccc5F)nn4)c3)c1=O)CC1OCCC(C)N1C2=O (stereo not drawn) [Compound 10f] | 32.43 |  | 82.22 |  |  | 61.10 | 
